# Legend:
# HL60/ADR cells = experiment: Inhibition of MRP-mediated MDR: doxorubicin with or without compound, XTT viability; format: cell-based; conditions: Homo sapiens, 72 h, doxorubicin alone, no MDR inhibitor, control run of the compound in the same table row, 3 days, read-out: IC50 Dox alone
# Protocol: We plated HL60/ADR cells in 96 well microtiter plates (4 x 10^4 cells/well). […] After culturing the cells for 3 days, their viability was quantitated using the XTT dye method to assess mitochondrial function. […] IC50 values are expressed in nM. In all assays the intrinsic antiproliferative or cytotoxic activity of the MDR inhibitors was also determined for HL60/ADR cells.
# L1210VMDRC.06 = experiment: MDR sensitization assay: doxorubicin antiproliferative activity with or without MDR inhibitor (MTT/XTT viability); format: cell-based, mouse; conditions: IC50 Dox / IC50 Dox + Inhibitor
# Protocol: To assay the ability of the compounds according to this invention to increase the antiproliferative activity of a drug, cell lines which are known to be resistant to a particular drug may be used. These cell lines include, but are not limited to, the L1210, P388D, CHO and MCF7 cell lines. Alternatively, resistant cell lines may be developed. The cell line is exposed to the drug to which it is resistant, or to the test compound; cell viability is then measured and compared to the viability of cells which are exposed to the drug in the presence of the test compound. […]
# Multi-drug resistance assays were conducted by plating cells (2 x 10^3, 1 x 10^4, or 5 x 10^4 cells/well) in 96 well microtiter plates and exposing them to a concentration range of doxorubicin ([…]) as described in Ford et al., Cancer Res., Vol. 50, 1748-1756. […] After culture for 3 days, the viability of cells was quantitated using MTT (Mossman) or XTT dyes to assess mitochondrial function. […]
# Results were determined by comparison of the IC50 for doxorubicin alone to the IC50 for doxorubicin+ MDR inhibitor. An MDR ratio was calculated (IC50 Dox/ IC50 Dox + Inhibitor) and the integer value used for comparison of compound potencies.
Molecule,IC50 (HL60/ADR cells) [µM],MDR Ratio 0.5 µM (L1210VMDRC.06; 0.5 µM compound),MDR Ratio 1.0 µM (L1210VMDRC.06; 1.0 µM compound)
"COc1cccc2c1C(=O)c1c(O)c3c(c(O)c1C2=O)C[C@@](O)(C(=O)CO)C[C@@H]3O[C@H]1C[C@H](N)[C@H](O)[C@H](C)O1 [Dox, doxorubicin]",5,,
"(S)-N-Benzyl-2-(methyl-(2-oxo-2-(3,4,5-trimethoxyphenyl)acetyl)amino)-3-phenyl-N-(3-(pyridin-4-yl)-1-(2-(pyridin-4-yl)-propyl)butyl)propionamide [Compound 12]",,3.2,>9.2

# — patent publication EP0797567B1, “NOVEL AMINO ACID DERIVATIVES WITH IMPROVED MULTI-DRUG RESISTANCE ACTIVITY” (Vertex Pharmaceuticals Incorporated, priority 1994, dated 1996)
